# Measured values reported in patent publication US12527837B2, “Peptide for use in the prevention and/or treatment of a disease caused by a virus affecting the respiratory tract” (priority 2020, dated 2026).
# Where two headings read alike, the source gives them in different places. No end group written: not given here.
# Key:
# [1] = system: standardised antigens from H1N1 virus; assay: Haemagglutination Inhibition Assay (HAI) with standardised antigens of influenza virus subtype H1N1; type: cell-based; settings: for activity of lysine-acetylated derivatives against the influenza virus compared with the parent peptides of example 2.1: HAI with standardised antigens
# [2] = system: live virus from subtype H1N1 of influenza virus; assay: HAI with live influenza virus subtype H1N1; type: cell-based; settings: live virus 4 HAU/25 μl; 1.5% v/v turkey red blood cells; FIG. 4A
# [3] = system: live virus from subtype H3N2 of influenza virus; assay: HAI with live influenza virus subtype H3N2; type: cell-based; settings: live virus 4 HAU/25 μl; 1.5% v/v turkey red blood cells; FIG. 4B
# [4] = system: human coronavirus HcoV-OC43; assay: HAI with heat-inactivated viral lysate of HcoV-OC43; type: cell-based; settings: heat-inactivated viral lysate 4 UHA/25 μl; 1.5% v/v turkey RBC; FIG. 5
# [5] = system: human coronavirus SARS-CoV-2; assay: HAI with heat-inactivated viral lysate of SARS-CoV-2; type: cell-based; settings: heat-inactivated viral lysate 4 UHA/25 μl; 1.5% v/v turkey RBC; FIG. 5
# measles virus = assay: HAI with heat-inactivated viral lysate of measles virus; type: cell-based; settings: heat-inactivated viral lysate 4 UHA/25 μl; 1.5% v/v turkey RBC; FIG. 5
# [6] = MDCK cells, 20 hours, MTS, FIG. 10
# [7] = MDCK cells, 20 hours, MTS, highest concentration tested 1 mg/ml
substance,measurement,setting,value
LEK*GLDGAKK AVGGLGKLGKDAVEDLESVGKGAVHDVKDVL (LEK(Ac)GLDGAKKAVGGLGKLGKDAVEDLESVGKGAVHDVKDVL) [SEQ ID No.: 29],activity of lysine-acetylated derivatives against the influenza virus compared with the parent peptides of example 2.1,[1],the same activity
LEK*GLDGAKK AVGGLGKLGKDAVEDLESVGKGAVHDVKDVLD (LEK(Ac)GLDGAKKAVGGLGKLGKDAVEDLESVGKGAVHDVKDVLD) [SEQ ID No.: 19],activity of lysine-acetylated derivatives against the influenza virus compared with the parent peptides of example 2.1,[1],the same activity
LEK*GLDGAKK AVGGLGKLGKDAVEDLESVGKGAVHDVKDVLDSVL (LEK(Ac)GLDGAKKAVGGLGKLGKDAVEDLESVGKGAVHDVKDVLDSVL) [SEQ ID No.: 20],activity of lysine-acetylated derivatives against the influenza virus compared with the parent peptides of example 2.1,[1],the same activity
same,activity against the H1N1 subtype of live influenza virus (HAI),[2],had activity
same,activity against the H3N2 subtype of live influenza virus (HAI),[3],had activity
"LEKGLDGAKKAVGGLGKLGKDAVEDLESVGKGAVHDVKDVLD (LEKGLDGAKKAVGGLGKLGKDAVEDLESVGKGAVHDVKDVLD; LEK-42) [SEQ ID No.: 1, dermcidin fragment]",activity against standardised antigens of H1N1 subtype of influenza virus (inhibiting haemagglutination),"[1]; H1N1 antigens 8 HAU/50 μl, 5% v/v turkey red blood cells, FIG. 2 and FIG. 3",had activity
"LEKGLDGAKKAVGGLGKLGKDAVEDLESVGKGAVHDVKDVLDSVL [SEQ ID No.: 2, LEKGLDGAKKAVGGLGKLGKDAVEDLESVGKGAVHDVKDVLDSVL]",peptides that cause significant toxicity in cells,MDCK cells; [6],none
same,cells in the culture that exhibited toxicity,MDCK cells; [7],20%
"RRKKAAVALLPAVLLALLAP [EB, RRKKAAVALL PAVLLALLAP, reference compound]",cytotoxicity observed in the culture,MDCK cells,total cell destruction
same,cytotoxicity of the cells in the culture,MDCK cells,50%
SSLLEK*GLDG AKKAVGGLGK LGKDA (SSLLEK(Ac)GLDGAKKAVGGLGKLGKDA) [SEQ ID No.: 28],activity of lysine-acetylated derivatives against the influenza virus compared with the parent peptides of example 2.1,[1],the same activity
SSLLEK*GLDG AKKAVGGLGKLGKDAVEDLESVGKGAVHDVKDVLD (SSLLEK(Ac)GLDGAKKAVGGLGKLGKDAVEDLESVGKGAVHDVKDVLD) [SEQ ID No.: 21],activity of lysine-acetylated derivatives against the influenza virus compared with the parent peptides of example 2.1,[1],the same activity
same,activity against the H3N2 subtype of live influenza virus (HAI),[3],had activity
SSLLEK*GLDG AKKAVGGLGKLGKDAVEDLESVGKGAVHDVKDVLDSV (SSLLEK(Ac)GLDGAKKAVGGLGKLGKDAVEDLESVGKGAVHDVKDVLDSV) [SEQ ID No.: 22],activity against the H1N1 subtype of live influenza virus (HAI),[2],had activity
same,activity against the H3N2 subtype of live influenza virus (HAI),[3],had activity
same,activity against HcoV-OC43 (preventing adhesion of the virus to RBCs),[4],active
same,activity against SARS-CoV-2 (preventing adhesion of the virus to RBCs),[5],active
same,activity against measles virus (preventing adhesion of the virus to RBCs),measles virus,active
SSLLEK*GLDG AKKAVGGLGKLGKDAVEDLESVGKGAVHDVKDVLDSVL (SSLLEK(Ac)GLDGAKKAVGGLGKLGKDAVEDLESVGKGAVHDVKDVLDSVL) [SEQ ID No.: 23],activity of lysine-acetylated derivatives against the influenza virus compared with the parent peptides of example 2.1,[1],the same activity
same,activity against the H1N1 subtype of live influenza virus (HAI),[2],had activity
same,activity against the H3N2 subtype of live influenza virus (HAI),[3],had activity
same,activity against HcoV-OC43 (preventing adhesion of the virus to RBCs),[4],active
same,activity against SARS-CoV-2 (preventing adhesion of the virus to RBCs),[5],active
same,activity against measles virus (preventing adhesion of the virus to RBCs),measles virus,active
"SSLLEKGLDGAKKAVGGLGKLGKDAVEDLESVGKGAVHDVKDVLD [SEQ ID No.: 3, SSLLEKGLDGAKKAVGGLGKLGKDAVEDLESVGKGAVHDVKDVLD]",peptides that cause significant toxicity in cells,MDCK cells; [6],none
same,cells in the culture that exhibited toxicity,MDCK cells; [7],20%
"SSLLEKGLDGAKKAVGGLGKLGKDAVEDLESVGKGAVHDVKDVLDSVL [SEQ ID No.: 5, SSLLEKGLDGAKKAVGGLGKLGKDAVEDLESVGKGAVHDVKDVLDSVL]",cells in the culture that exhibited toxicity,MDCK cells,20%
same,peptides that cause significant toxicity in cells,MDCK cells,none
